{
  "source": "patent US11389396B2",
  "about": "“Tumescent antibiotic injection for treatment of chronic skin and soft tissue infections” (The Regents of the University of California, priority 2016, dated 2022)",
  "key": {"MRSA strains": {"tested_on": "MRSA strains", "details": "1 g/100 mL cefazolin in tumescent solution; cited from earlier work"}, "[1]": {"experiment": "CT scans over seven hours of tumescent injections of saline containing iodine contrast", "type": "in vivo, Yucatan pig", "description": "To more accurately determine the timescale over which the local antibiotic concentration remains high, we performed CT scans over a long time period.\nThe figures are CTs viewing the abdomen of the pig with the head towards the top of the figure. Tumescent injections are seen as 4 rows, and 2 columns of large circular white regions, with injection volumes 20 mL, 10 mL, 5 mL and 2.5 mL from top row to bottom. There is one column of 4 tiny white dots along the center of the abdomen that are skin markers placed in the same axial plane as the location of the injections for reference. It is clear that the iodine concentration may remain high for several hours. While the 20 mL injections are clearly visible for 5 hours, the 2.5 mL injections are easily seen for only 3 hours.\nEach value along the lineout represents the max attenuation value below that point on a line perpendicular to the surface (Maximum Intensity Projection mode). For comparison, we measured the attenuation of a vial of pure infusate to be 500 HU, and the attenuation of normal subcutaneous tissue to be about −90 HU. A concentration equal to at least half the initial value (or attenuation of […]—half way between the extremes) is maintained for at least 4 hours."}, "[2]": {"experiment": "CT images roughly every 10 min of 20 mL tumescent injections, local fraction of contrast", "method": "In a different experiment we took CT images roughly every 10 min instead of every hour in order to see the initially rapid dynamics. An axial cross-sectional image is shown in FIG. 14 before and after two 20 mL tumescent injections on symmetric sides of the anesthetized adult Yucatan pig's abdomen.\nThe initial rise is due to the spreading of the tumescent fluid after the completion of the injection into unexpanded tissue. […] We verified this by multiplying the total volume and mean curves to get a measure of the “total contrast” that remains localized in the tumescence (FIG. 15 bottom, left). Dividing the total contrast curve by its maximum yields the “Localized Fraction” curves of FIG. 15 (bottom, right)."}, "[3]": {"details": "healthy tissue; cited from earlier work"}, "[4]": {"details": "in vivo; cited from earlier work"}},
  "data": [
    {"smiles": "Cc1nnc(SCC2=C(C(=O)O)N3C(=O)[C@@H](NC(=O)Cn4cnnn4)[C@H]3SC2)s1", "note": "[cefazolin]", "values": [
      {"measurement": "concentration relative to the MIC", "setting": "MRSA strains", "result": "above the MIC for most, if not all, MRSA strains"}
    ]},
    {"smiles": "II", "note": "[iodine]", "values": [
      {"measurement": "time for which the injection is easily seen on CT", "setting": "[1]; 2.5 mL subcutaneous abdominal injection, saline with 2 g/100 mL iodine contrast, healthy adult Yucatan pig", "result": 3, "unit": "h"},
      {"measurement": "time for which the injection is clearly visible on CT", "setting": "[1]; 20 mL subcutaneous abdominal injection, saline with 2 g/100 mL iodine contrast, healthy adult Yucatan pig", "result": 5, "unit": "h"},
      {"measurement": "time for which a concentration of at least half the initial value is maintained", "setting": "[1]; CT lineouts, maximum intensity projection, attenuation 155 as half way point", "result": "at least 4 hours"},
      {"measurement": "drop in the local fraction (take-up by lymph and capillaries)", "setting": "[2]; over the 70 minutes of the experiment, anesthetized adult Yucatan pig", "result": "~30", "unit": "%"},
      {"measurement": "timescale of spontaneous spreading", "setting": "[2]; tumescent injection, CT", "result": "< 5", "unit": "min"},
      {"measurement": "timescale of take up by the serum", "setting": "[2]; tumescent injection, CT", "result": "~1", "unit": "h"}
    ]},
    {"smiles": "CNC[C@H](O)c1ccc(O)c(O)c1", "note": "[epinephrine]", "values": [
      {"measurement": "systemic absorption time extended by use of a vasoconstrictor", "setting": "[3]", "result": "> 8", "unit": "h"}
    ]},
    {"smiles": "CO/N=C(\\C(=O)N[C@@H]1C(=O)N2C(C(=O)O)=C(CSc3nc(=O)c(=O)[nH]n3C)CS[C@H]12)c1csc(N)n1", "note": "[Ceftriaxone]", "values": [
      {"measurement": "concentration shown to be safe, relative to 1 g/100 mL cefazolin", "setting": "[4]", "result": "35 times higher concentrations"}
    ]}
  ]
}
